In patent publication US20260256925A1, “INDAZOLE DERIVATIVES AS ESTROGEN RECEPTOR DEGRADERS” (REGENTS OF THE UNIVERSITY OF MICHIGAN, priority 2022, published 2026):

biological target: T1, ER (Homo sapiens, UniProt P03372); assay: In-cell western blot analysis, relative ER percentage (compounds B1-B126); type: cell-based; conditions: ER degradation, 16 hours, read-out: ICW DC50
T1 construct: endogenous in cells; probably T47D or MCF-7
T1 sequence (P03372 1-595): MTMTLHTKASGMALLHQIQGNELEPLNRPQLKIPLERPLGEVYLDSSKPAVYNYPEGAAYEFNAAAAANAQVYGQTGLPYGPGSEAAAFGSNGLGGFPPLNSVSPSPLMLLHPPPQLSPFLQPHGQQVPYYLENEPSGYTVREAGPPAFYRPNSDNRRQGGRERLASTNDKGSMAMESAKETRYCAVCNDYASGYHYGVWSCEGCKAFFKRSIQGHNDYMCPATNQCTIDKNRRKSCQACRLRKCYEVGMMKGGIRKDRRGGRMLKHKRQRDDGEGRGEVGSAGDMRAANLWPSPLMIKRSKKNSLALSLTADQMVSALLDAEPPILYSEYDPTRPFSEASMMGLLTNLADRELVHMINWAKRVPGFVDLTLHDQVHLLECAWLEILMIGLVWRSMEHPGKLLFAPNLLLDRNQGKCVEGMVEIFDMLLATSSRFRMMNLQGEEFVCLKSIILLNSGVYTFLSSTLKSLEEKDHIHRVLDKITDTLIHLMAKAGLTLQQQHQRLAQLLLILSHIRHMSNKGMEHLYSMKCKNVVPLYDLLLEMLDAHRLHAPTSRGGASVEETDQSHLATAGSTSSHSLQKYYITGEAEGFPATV
Description: In-cell western blot analysis. Cells are seeded in multi-well plates (e.g., at 40,000 or 10,000 cells/well). Diluted compounds at certain concentration are added (final 0.5% DMSO) and cells are incubated for a certain period of time (e.g., 16 hours). Formaldehyde (e.g., PBS: FA=9:1) is added and followed by washing with PBS. The cells are blocked with Licor blocking buffer (Li-Cor). The relative ER percentage in treated cells are obtained by comparing the values of treated wells to those in untreated and DMSO-treated wells as 100%.
In-cell western blot analysis. a. seed cells in black-sided/clear bottom 96- or 384-well plates at 40,000 or 10,000 cells/well, overnight; b. add diluted compounds (final 0.5% DMSO), 16 hours. […] RT 2h, gentle shaking. Negative control: cells plus secondary antibodies (no primary antibodies); e. wash×4 with PBS +0.05-0.1% Tween 20, gentel shaking; f. anti-rabbit-680 and anti-mouse-800 (both 1:1000 in LiCor block+0.05% Tween20, RT 1h, gentle shaking, no light. LI-COR: 0.2% to reduce background; g. wash×4 with PBS+0.05% Tween 20, gental shaking; h. add 100 μL or 25 μL of PBS to each well and read on CLX plate reader. The relative ER percentage in treated cells were obtained by comparing the values of treated wells to those in untreated and DMSO-treated wells as 100%.

Compound | DC50 [nM]
C[C@@H]1Cc2c(ccc3[nH]ncc23)[C@@H](c2ccc(N3CCC4(CCN(CC(=O)N5Cc6cc7c(cc6C5)C(=O)N(C5CCC(=O)NC5=O)C7=O)CC4)CC3)cn2)N1CC(F)F (stereo partly drawn) [Compound B50, 6-(2-(9-(6-((6S,8R)-7-(2,2-difluoroethyl)-8-methyl-6,7,8,9-tetrahydro-3H-pyrazolo[4,3-f]isoquinolin-6-yl)pyridin-3-yl)-3,9-diazaspiro[5.5]undecan-3-yl)acetyl)-2-(2,6-dioxopiperidin-3-yl)-6,7-dihydropyrrolo[3,4-f]isoindole-1,3(2H,5H)-dione] | > 100
C[C@H]1Cc2c(ccc3[nH]ncc23)[C@H](c2ccc(N3CCC4(CC3)CC(CN3CCN(c5ccc(NC6CCC(=O)NC6=O)cc5F)CC3)C4)cn2)N1CC(F)(F)F (stereo partly drawn) [Compound B120, 3-((3-fluoro-4-(4-((7-(6-((6R,8S)-8-methyl-7-(2,2,2-trifluoroethyl)-6,7,8,9-tetrahydro-3H-pyrazolo[4,3-f]isoquinolin-6-yl)pyridin-3-yl)-7-azaspiro[3.5]nonan-2-yl)methyl)piperazin-1-yl)phenyl)amino)piperidine-2,6-dione] | > 100
C[C@H]1Cc2c(ccc3[nH]ncc23)[C@H](c2ccc(N3CC4(CCC(CN5CCN(c6ccc(NC7CCC(=O)NC7=O)cc6F)CC5)CC4)C3)cn2)N1CC(F)(F)F (stereo partly drawn) [Compound B121, 3-((3-fluoro-4-(4-((2-(6-((6R,8S)-8-methyl-7-(2,2,2-trifluoroethyl)-6,7,8,9-tetrahydro-3H-pyrazolo[4,3-f]isoquinolin-6-yl)pyridin-3-yl)-2-azaspiro[3.5]nonan-7-yl)methyl)piperazin-1-yl)phenyl)amino)piperidine-2,6-dione] | > 100

tested on: not listed separately; assay: Cell growth assay, WST-8 (compounds B1-B126); type: cell-based; conditions: 96 h; T47D cell line, WST-8, 4 days; read-out: Cell growth inhibition in T47D cell line IC50
Description: Cell Growth Assay. The cells are seeded at certain concentration (e.g., at 1500/well) in multi-well plates overnight. Cells are subsequently treated with the compounds. A certain period of time (e.g., 4 days) after the compound treatment, 10% WST-8 reagent is added to the culture medium and incubate under certain condiction (e.g., in a CO2 incubator at 37° C. for 2.5 hours). The absorbance is measured on each sample using a microplate reader at certain wavelength (e.g., 450 nm). The relative absorbance is calculated against the vehicle control from three individually repeats.
Cell Growth Assay. The cells were seeded at 1500/well in 96 well plates overnight. One day after the seeding, they were treated with indicated doses of compounds respectively. 4 days after the compound treatment, 10% WST-8 reagent was added to the culture medium and incubate in a CO2 incubator at 37° C. for 2.5 hours. Before reading, the plate was mixed gently on an orbital shaker for one minute to ensure homogeneous distribution of color. The absorbance was measured of each sample using a microplate reader at a wavelength of 450 nm. The relative absorbance was calculated against the vehicle control from three individually repeats.

Compound | IC50 [nM]
C[C@@H]1Cc2c(ccc3[nH]ncc23)[C@@H](c2ccc(N3CCC4(CCN(C(=O)CN5Cc6cc7c(cc6C5)C(=O)N(C5CCC(=O)NC5=O)C7)CC4)CC3)cn2)N1CC(F)(F)F (stereo partly drawn) [Compound B74, 3-(6-(2-(9-(6-((6S,8R)-8-methyl-7-(2,2,2-trifluoroethyl)-6,7,8,9-tetrahydro-3H-pyrazolo[4,3-f]isoquinolin-6-yl)pyridin-3-yl)-3,9-diazaspiro[5.5]undecan-3-yl)-2-oxoethyl)-1-oxo-3,5,6,7-tetrahydropyrrolo[3,4-f]isoindol-2(1H)-yl)piperidine-2,6-dione] | 1 to 10
COc1c2c(cc3c1CN(C1CCC(=O)NC1=O)C3=O)CN(CC(=O)N1CCC3(CC1)CCN(c1ccc([C@@H]4c5ccc6[nH]ncc6c5C[C@@H](C)N4CC(F)(F)F)nc1)CC3)C2 (stereo partly drawn) [Compound B75, 3-(4-methoxy-6-(2-(9-(6-((6S,8R)-8-methyl-7-(2,2,2-trifluoroethyl)-6,7,8,9-tetrahydro-3H-pyrazolo[4,3-f]isoquinolin-6-yl)pyridin-3-yl)-3,9-diazaspiro[5.5]undecan-3-yl)-2-oxoethyl)-1-oxo-3,5,6,7-tetrahydropyrrolo[3,4-f]isoindol-2(1H)-yl)piperidine-2,6-dione] | < 1
C[C@@H]1Cc2c(ccc3[nH]ncc23)[C@@H](c2c(F)cc(N3CCC(CN4CCC5(CCOc6c5ccc5c6CN(C6CCC(=O)NC6=O)C5=O)CC4)CC3)cc2F)N1CC(F)F (stereo partly drawn) [Compound B47, 3-(1-((1-(4-((6S,8R)-7-(2,2-difluoroethyl)-8-methyl-6,7,8,9-tetrahydro-3H-pyrazolo[4,3-f]isoquinolin-6-yl)-3,5-difluorophenyl)piperidin-4-yl)methyl)-7′-oxo-2′,3′,7′,9′-tetrahydro-8′H-spiro[piperidine-4,4′-pyrano[2,3-e]isoindol]-8′-yl)piperidine-2,6-dione] | < 1
C[C@@H]1Cc2c(ccc3[nH]ncc23)[C@@H](c2c(F)cc(N3CCC4(CCN(C(=O)CN5Cc6cc7c(cc6C5)C(=O)N(C5CCC(=O)NC5=O)C7=O)CC4)CC3)cc2F)N1CC(F)F (stereo partly drawn) [Compound B15, 6-(2-(9-(4-((6S,8R)-7-(2,2-difluoroethyl)-8-methyl-6,7,8,9-tetrahydro-3H-pyrazolo[4,3-f]isoquinolin-6-yl)-3,5-difluorophenyl)-3,9-diazaspiro[5.5]undecan-3-yl)-2-oxoethyl)-2-(2,6-dioxopiperidin-3-yl)-6,7-dihydropyrrolo[3,4-f]isoindole-1,3(2H,5H)-dione] | < 1
